Counter-ions that a name gives are not always drawn.

In assay [1] the target is T1, recombinant human Lp-PLA2 (Homo sapiens, UniProt Q13093).
T1 sequence (Q13093 22-441): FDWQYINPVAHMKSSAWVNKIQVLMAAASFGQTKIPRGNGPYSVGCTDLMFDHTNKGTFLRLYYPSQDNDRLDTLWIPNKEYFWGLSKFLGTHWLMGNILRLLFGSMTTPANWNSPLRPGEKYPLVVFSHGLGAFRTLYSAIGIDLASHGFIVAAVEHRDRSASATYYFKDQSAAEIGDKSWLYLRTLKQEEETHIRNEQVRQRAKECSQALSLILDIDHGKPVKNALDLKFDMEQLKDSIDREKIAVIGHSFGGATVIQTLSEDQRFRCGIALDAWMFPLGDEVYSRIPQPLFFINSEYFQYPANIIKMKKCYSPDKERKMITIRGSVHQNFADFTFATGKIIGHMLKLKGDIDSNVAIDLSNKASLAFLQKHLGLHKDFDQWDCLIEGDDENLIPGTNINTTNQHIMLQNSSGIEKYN
Description: Recombinant human Lp-PLA2 assay (rhLp-PLA2, PED6 assay). The assay is classed as biochemical. The settings on record: recombinant human Lp-PLA2, PED6 substrate; upper limit for pIC50 in this assay is 9.3. From the text:
(1) Recombinant Human Lp-PLA2 Assay (rhLp-PLA2) (Also Referred to as “PED6” Assay)
N-((6-(2,4-dinitrophenyl)amino)-hexanoyl)-2-(4,4-difluoro-5,7-dimethyl-4-bora-3a,4a-diaza-s-indacene-3-pentanoyl)-1-hexadecanoyl-sn-glycero-3-phosphoethanolamine, triethylammonium salt (PED6) is a commercially available fluorescently-labeled phospholipid, which is commercially available from Invitrogene and Molecular Probes. There is a quenching […] and a Bodipy fluorescein (FL) group in the sn2 position. Upon cleavage with Lp-PLA2, the Bodipy FL group is liberated and then may result in an increase in fluorescence. Inhibitors of Lp-PLA2 therefore prevent this cleavage and no fluorescent increase is observed.
The PED6 assay was run as an unquenched 10 μL assay. The source plate containing the compounds to be tested was prepared by making 1:3 (by volume) serial dilution of the compounds within DMSO on 384-well microplate. Then, 0.01 μL of the compounds on compound source plate were transferred into 384 well Greiner 784076 (black) plates using ECHO liquid dispenser. 5 µL of recombinant human Lp-PLA2 enzyme (4 nM (or 110 pM) rhLp-PLA2 in assay buffer of 50 mM HEPES, pH 7.4, 150 mM NaCl, 1 mM CHAPS) was added to each well of the plate. Plates were centrifuged for 10 sec at 500 rpm. After 30 minutes preincubation, 5 µL of substrate (4 μM (or 5 μM) PED6 [from 5 mM DMSO stock] in assay buffer of 50 mM HEPES, pH 7.4, 150 mM NaCl, 1 mM CHAPS) was added to 384 well Greiner 784076 (black) plates. Plates were centrifuged for 10 sec at 500 rpm. The plate was covered to protect it from light and incubated for 20 min at room temperature. The plates were read for fluorescence intensity at ex: 480/em: 540 using ViewLux microplate imager for Envision spectrofluroimeters pIC50 data, curve and QC analysis was conducted by using XL fit module in Excel.
The compounds described below were tested generally according to the PED6 assay described above.

For assay [2], the target named is T2, Lp-PLA2 in human plasma (Homo sapiens, UniProt Q13093).
T2 construct: This assay may detect the activity of Lp-PLA2 in human plasma; from tissue; host or cells: pooled human plasma
T2 sequence (Q13093 22-441): T1 sequence (Q13093 22-441)
Description: Lp-PLA2 human plasma assay (Thio-PAF assay). It counts as biochemical. Conditions: pooled human plasma, 2-thio-PAF substrate; read-out: pIC50 in the thio-PAF assay (converted). From the text: (3) Lipoprotein-Associated Phospholipase A2 (Lp-PLA2) Human Plasma Assay (Also Referred to as “Thio-PAF Assay”)
The human plasma assay utilizes a thioester analog of PAF (phosphatidylcholine), where hydrolysis yields to the formation of a phospholipid containing a free thiol group. The amount of thiol is quantitated continuously by reacting with CPM (7-diethylamino-3-(4′-maleimidylphenyl)-4-methylcoumarin), a maleimide which increases in fluoresence after Michael addition of thiols. This assay may detect the activity of Lp-PLA2 in human plasma, as determined by specific inhibition by Lp-PLA2 inhibitors.
The thio-PAF assay was run as a quenched 15 μL assay. Compounds source plate was prepared by making 1:3 (by volume) serial dilution of the compounds into pure DMSO on 384-well microplate. 0.01 μL of compounds on compound source plate were transferred to 384 well Greiner 784076 (black) low-volume plates by ECHO liquid dispenser. 8 μL pooled human plasma, which was previously aliquoted and frozen, was added. Plates were centrifuged for 10 sec at 500 rpm. After 30 minutes preincubation, 2 μL of substrate solution comprising 2.5 mM 2-thio-PAF [from ethanol stock], 32 μM CPM [from a DMSO stock] and 3.2 mM NEM (N-ethylmaleimide) [made fresh daily in DMSO] in assay buffer of 50 mM HEPES, pH 7.4, 150 mM NaCl, 1 mM CHAPS was added to 384 well Greiner 784076 (black) low-volume plates by BRAVO liquid handling station. After 2 mins, reaction was quenched with 5 μL of 5% aqueous trifluoroacetic acid (TFA). Plates were covered to protect from light and incubated for 40 min at room temperature. Plates were read at ex: 380/em: 485 using-Envision microplate reader. pIC50 data, curve and QC analysis was conducted by using XLFit module in Excel.

For `CN1CCn2c1cc(OCc1ccc(Oc3cncc(C(F)(F)F)c3)c(C#N)c1)nc2=O` [Example 115, 5-(((1-methyl-5-oxo-1,2,3,5-tetrahydroimidazo[1,2-c]pyrimidin-7-yl)oxy)methyl)-2-((5-(trifluoromethyl)pyridin-3-yl)oxy)benzonitrile, trifluoroacetic acid salt], the IC50 in assay [1] is 3.98 nM; in assay [2], at most 100 nM.
In the case of `CN1CCn2c1cc(OCc1ccc(Oc3cc(F)cc(C(F)(F)F)c3)c(C#N)c1)nc2=O` [Example 116], the figures for the IC50 in assay [1] and in assay [2] were at most 1 nM and at most 100 nM, respectively.
The corresponding values for `N#Cc1ccc(Oc2ccc(COc3cc4n(c(=O)n3)CCN4)cc2F)cc1C(F)(F)F` [Example 118, 4-(2-fluoro-4-(((5-oxo-1,2,3,5-tetrahydroimidazo[1,2-c]pyrimidin-7-yl)oxy)methyl)p-hen-oxy)-2-(trifluoromethyl)benzonitrile] are 0.794 nM and at most 100 nM.
The corresponding values for `O=c1nc(OCc2ccc(Oc3ccnc(C(F)(F)F)c3)c(F)c2)cc2n1CCN2` [Example 119, 7-((3-fluoro-4-((2-(trifluoromethyl)pyridin-4-yl)oxy)benzyl)oxy)-2,3-dihydroimidazo[1,2-c]pyrimidin-5(1H)-one] are 2.51 nM and at most 100 nM.
The matching figures for `N#Cc1cc(COc2cc3n(c(=O)n2)CCN3)ccc1Oc1cc(F)cc(C(F)(F)F)c1` [Example 120, 2-(3-fluoro-5-(trifluoromethyl)phenoxy)-5-(((5-oxo-1,2,3,5-tetrahydroimidazo[1,2-c]pyrimidin-7-yl)oxy)methyl)benzonitrile]: at most 10 nM and at most 100 nM.
In the case of `CN1CCn2c1cc(OCc1ccc(Oc3ccc(C#N)c(Cl)c3)c(C#N)c1)nc2=O` [Example 122, 2-chloro-4-(2-cyano-4-(((1-methyl-5-oxo-1,2,3,5-tetrahydroimidazo[1,2-c]pyrimidin-7-yl)oxy)methyl)phenoxy)benzonitrile], the results for the IC50 in assay [1] and in assay [2] were at most 10 nM and at most 100 nM, respectively.
As for `CN1CCn2c1cc(OCc1ccc(Oc3ccnc(C(F)(F)F)c3)cc1)nc2=O` [Example 123, 1-methyl-7-((4-((2-(trifluoromethyl)pyridin-4-yl)oxy)benzyl)oxy)-2,3-dihydroimid-azo[1,2-c]pyrimidin-5(1H)-one], the IC50 was at most 10 nM in assay [1] and at most 1000 nM in assay [2].
Turning to `N#Cc1cc(COc2cc3n(c(=O)n2)CCN3)ccc1Oc1cncc(C(F)(F)F)c1` [Example 124, 5-(((5-oxo-1,2,3,5-tetrahydroimidazo[1,2-c]pyrimidin-7-yl)oxy)methyl)-2-((5-(trifluoromethyl)pyridin-3-yl)oxy)benzonitrile, trifluoroacetic acid salt], the IC50 in assay [1] was at most 10 nM; in assay [2], at most 100 nM.
The matching figures for `CN1CCn2c1cc(OCc1ccc(Oc3ccc(Cl)c(C#N)c3)c(F)c1)nc2=O` [Example 125, 2-chloro-5-(2-fluoro-4-(((1-methyl-5-oxo-1,2,3,5-tetrahydroimidazo[1,2-c]pyrimidin-7-yl)oxy)methyl)phenoxy)benzonitrile]: at most 1 nM and at most 100 nM.
The corresponding values for `CN1CCn2c1cc(OCc1ccc(Oc3cncc(C(F)(F)F)c3)c(F)c1)nc2=O` [Example 126, 7-((3-fluoro-4-((5-(trifluoromethyl)pyridin-3-yl)oxy)benzyl)oxy)-1-methyl-2,3-dihydroimidazo[1,2-c]pyrimidin-5(1H)-one] are at most 10 nM and at most 100 nM.
On to `CN1CCn2c1cc(OCc1ccc(Oc3ccc(C#N)c(Cl)c3)c(F)c1)nc2=O` [Example 128, 2-chloro-4-(2-fluoro-4-(((1-methyl-5-oxo-1,2,3,5-tetrahydroimidazo[1,2-c]pyrimidin-7-yl)oxy)methyl)phenoxy)benzonitrile], for which the IC50 in assay [1] was at most 1 nM; in assay [2], at most 100 nM.
The matching figures for `CN1CCn2c1cc(OCc1ccc(Oc3ccnc(C#N)c3)c(F)c1)nc2=O` [Example 129, 4-(2-fluoro-4-(((1-methyl-5-oxo-1,2,3,5-tetrahydroimidazo[1,2-c]pyrimidin-7-yl)oxy)methyl)phenoxy)picolinonitrile, trifluoroacetic acid salt]: at most 10 nM and at most 1000 nM.
The corresponding values for `CN1CCn2c1cc(OCc1ccc(Oc3ccnc(C#N)c3)c(C#N)c1)nc2=O` [Example 130, 4-(2-cyano-4-(((1-methyl-5-oxo-1,2,3,5-tetrahydroimidazo[1,2-c]pyrimidin-7-yl)oxy)methyl)phenoxy)picolinonitrile, trifluoroacetic acid salt] are at most 10 nM and at most 100 nM.
The matching figures for `CN1CCn2c1cc(OCc1ccc(Oc3cncc(Cl)c3)c(C#N)c1)nc2=O` [Example 134, 2-((5-chloropyridin-3-yl)oxy)-5-(((1-methyl-5-oxo-1,2,3,5-tetrahydroimidazo[1,2-c]pyrimidin-7-yl)oxy)methyl)benzonitrile]: at most 10 nM and at most 100 nM.
For `CN1CCn2c1cc(OCc1ccc(Oc3ccc(C#N)c(F)c3)c(F)c1)nc2=O` [Example 136, 2-fluoro-4-(2-fluoro-4-(((1-methyl-5-oxo-1,2,3,5-tetrahydroimidazo[1,2-c]pyrimidin-7-yl)oxy)methyl)phenoxy)benzonitrile], the IC50 in assay [1] is at most 10 nM; in assay [2], at most 1000 nM.
The corresponding values for `CN1CCn2c1cc(OCc1ccc(Oc3ccc(F)c(C#N)c3)c(F)c1)nc2=O` [Example 139, 2-fluoro-5-(2-fluoro-4-(((1-methyl-5-oxo-1,2,3,5-tetrahydroimidazo[1,2-c]pyrimidin-7-yl)oxy)methyl)phenoxy)benzonitrile] are at most 10 nM and at most 1000 nM.
As for `CN1CCn2c1cc(OCc1cc(F)c(Oc3ccc(C(F)(F)F)c(F)c3)c(F)c1)nc2=O` [Example 140, 7-((3,5-difluoro-4-(3-fluoro-4-(trifluoromethyl)phenoxy)benzyl)oxy)-1-methyl-2,3-dihydroimidazo[1,2-c]pyrimidin-5(I H)-one], the results for the IC50 in assay [1] and in assay [2] were at most 1 nM and at most 100 nM, respectively.
As to `CN1CCn2c1cc(OCc1cc(F)c(Oc3ccc(C#N)c(C(F)(F)F)c3)c(F)c1)nc2=O` [Example 144, 4-(2,6-difluoro-4-(((1-methyl-5-oxo-1,2,3,5-tetrahydroimidazo[1,2-c]pyrimidin-7-yl)oxy)methyl)phenoxy)-2-(trifluoromethyl)benzonitrile], the IC50 in assay [1] is below 0.501 nM; in assay [2], at most 100 nM.

The values are drawn from patent US8975400B2, “2,3-dihydroimidazo[1, 2-c] pyrimidin-5(1 H)-one compounds use as LP-PLA2 inhibitors” (Glaxo Group Limited, priority 2011, dated 2015).
